In PubChem BioAssay (NCI):
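Tested at 5 concentrations; 48 h exposure; 96-well plates; endpoints linearly interpolated, else capped at highest concentration. TGI: total growth inhibition.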

Each compound was assayed on A498 renal (assay: NCI-60 cell line screen, 48 h).

| SMILES | TGI |
| --- | --- |
| O=C(O)C(O)C(O)C(O)C(O)CO (stereo not given) | > 100 µM |
| OC(C#CCN1CCCC1)(c1ccccc1)c1ccccc1Cl (stereo not given) | 66.8 µM |
| CSc1nc2c(c(N(C)C)n1)C(O)n1c(nc3ccccc31)S2 (stereo not given) | > 100 µM |
| O=C1CSC2(CC(/C=C/c3cccs3)=NN2c2cccc(S(=O)(=O)O)c2)N1c1nc2ccccc2s1 (stereo not given) | 92.7 µM |
| COc1ccc(-c2nc3ccccc3c(=S)n2OC(C)=O)cc1 | > 25 µM |
| C[C@@H]1CCC2[C@@H](C)[C@@H](O[C@H]3O[C@@H]4O[C@@]5(C)CCC6[C@H](C)CCC([C@H]3C)[C@]64OO5)O[C@@H]3O[C@@]4(C)CCC1[C@@]23OO4 (stereo not given in full) | > 25 µM |
| O=C(c1ccccc1)c1ccc2c(c1)NC(=O)c1ccccc1SSc1ccccc1C(=O)N2 | > 100 µM |
| CCCCOCCOC1=C(Cl)C(=O)c2c(O)ccc(O)c2C1=O | 4.33 µM |
| COc1ccc(C(=O)NCCN(C)C)c2nc3ccccc3cc12 | 3.76 µM |
| Cc1ccc(/C=C2/N=C(N/N=C\C(O)C(O)C(O)C(O)CO)NC2=O)cc1 (stereo not given) | > 100 µM |
| CCN(C(=O)N[C@@H](C)C(=O)N[C@@H](Cc1ccccc1)C(=O)OC)c1ccccc1 | > 100 µM |
| CN(C)Cc1cc(C(=O)/C=C/c2ccc([N+](=O)[O-])cc2)cc(CN(C)C)c1O | 23.9 µM |
| O=C(CCSC1=NCCCN1)c1ccc(F)cc1 | 44.2 µM |
| CCOc1c(OC)cc(-c2nc3n(n2)C(=O)C(CC)S3)cc1OC (stereo not given) | > 10 µM |
| CC1OC(O[C@H]2C3C=CO[C@@H](OC4OC(CO)C(O)C(O)C4O)C3[C@@]3(COC(=O)/C=C/c4ccccc4)O[C@@H]23)C(O)C(O)C1O (stereo not given in full) | > 100 µM |
| C/C1=C\[C@H](C)C[C@H](C)OC(=O)[C@H](C)NC(=O)[C@@H](Cc2ccc(O)c(Br)c2)N(C)C(=O)[C@H](C)NC(=O)[C@@H](C)C1 | 0.051 µM |
| COC1OC2COC(c3ccccc3)OC2C(O)C1OC(=S)c1ccccc1 (stereo not given) | > 100 µM |

What follows are compounds tested on MDA-N (assay: NCI-60 cell line screen, 48 h).

| SMILES | TGI |
| --- | --- |
| CO/N=C(/C(=O)OC)c1ccccc1COc1ccccc1C(F)(F)F | > 100 µM |
| COc1cc(Nc2ccc3c(c2)CCC3)nc(OC)n1 | > 100 µM |
| CCOC(=O)c1c2cccccc-2nc1Nc1cccc2c(C)ccnc12 | > 10 µM |
| Cc1c2c(c(C)n1-c1ccccc1)C(=O)N(CCN1CCN(c3cccc(C(F)(F)F)c3)CC1)C2=O | > 100 µM |
| CCOC(=O)CC/C(=N/Nc1ccc(Cl)cc1[N+](=O)[O-])C(=O)OCC | > 100 µM |
| COc1cc(O)c2c(=O)c(OC)c(-c3ccc(OC)c(O)c3)oc2c1 | > 100 µM |
| O=c1c2c(no[n+]2[O-])c2ccccc2n1-c1ccccc1 | 9.56 µM |
| Clc1ccc(C=NC23CC4CC(CC(C4)C2)C3)c(Cl)c1 | > 10 µM |
| OCCCc1ccc2c(c1)[C@H](CO)[C@@H](c1ccc(O)cc1)O2 | > 100 µM |
| c1ccc(C2=NOC(c3ccccc3)N2C23CC4CC(CC(C4)C2)C3)cc1 (stereo not given) | > 10 µM |
| CCOC(=O)C(NC(=O)CC)(N1CCN(c2cc3c(cc2F)c(=O)c(C(=O)O)cn3C2CC2)CC1)C(F)(F)F (stereo not given) | > 100 µM |
| O=[N+]([O-])c1cc2oc(CSc3ccccc3)nc2cc1Cl | > 100 µM |
| CC(C)(CO)CNc1nc(N)nc(Cl)c1/C=N/O | > 100 µM |
| COc1ccc2oc(=N)c(C(=O)Nc3ccccc3)cc2c1 | 48.4 µM |
| C=C(C)[C@H]1C2=CC(C(=O)OC)=C(C[C@H](C(=C)C)[C@@H](O)[C@@H](O)C3=C[C@H]1OC3=O)O2 | > 100 µM |
| O=c1onc2n1-c1cc(Cl)ccc1C(=S)N1CSCC21 (stereo not given) | > 100 µM |
| CN1CC[C@]2(c3cccc(O)c3)CC(=O)/C(=C/c3ccccc3)[C@@H]1C2 | 3.94 µM |

| SMILES | TGI |
| --- | --- |
| O=C(O)C(O)C(O)C(O)C(O)CO (stereo not given) | > 100 µM |
| OC(C#CCN1CCCC1)(c1ccccc1)c1ccccc1Cl (stereo not given) | 50.9 µM |
| CSc1nc2c(c(N(C)C)n1)C(O)n1c(nc3ccccc31)S2 (stereo not given) | > 100 µM |
| O=C1CSC2(CC(/C=C/c3cccs3)=NN2c2cccc(S(=O)(=O)O)c2)N1c1nc2ccccc2s1 (stereo not given) | > 100 µM |
| COc1ccc(-c2nc3ccccc3c(=S)n2OC(C)=O)cc1 | > 25 µM |
| C[C@@H]1CCC2[C@@H](C)[C@@H](O[C@H]3O[C@@H]4O[C@@]5(C)CCC6[C@H](C)CCC([C@H]3C)[C@]64OO5)O[C@@H]3O[C@@]4(C)CCC1[C@@]23OO4 (stereo not given in full) | > 25 µM |
| O=C(c1ccccc1)c1ccc2c(c1)NC(=O)c1ccccc1SSc1ccccc1C(=O)N2 | > 100 µM |
| CCCCOCCOC1=C(Cl)C(=O)c2c(O)ccc(O)c2C1=O | 0.766 µM |
| COc1ccc(C(=O)NCCN(C)C)c2nc3ccccc3cc12 | 4.38 µM |
| Cc1ccc(/C=C2/N=C(N/N=C\C(O)C(O)C(O)C(O)CO)NC2=O)cc1 (stereo not given) | > 100 µM |
| CCN(C(=O)N[C@@H](C)C(=O)N[C@@H](Cc1ccccc1)C(=O)OC)c1ccccc1 | > 100 µM |
| CN(C)Cc1cc(C(=O)/C=C/c2ccc([N+](=O)[O-])cc2)cc(CN(C)C)c1O | 24.7 µM |
| O=C(CCSC1=NCCCN1)c1ccc(F)cc1 | 32.4 µM |
| CCOc1c(OC)cc(-c2nc3n(n2)C(=O)C(CC)S3)cc1OC (stereo not given) | > 10 µM |
| CC1OC(O[C@H]2C3C=CO[C@@H](OC4OC(CO)C(O)C(O)C4O)C3[C@@]3(COC(=O)/C=C/c4ccccc4)O[C@@H]23)C(O)C(O)C1O (stereo not given in full) | > 100 µM |
| C/C1=C\[C@H](C)C[C@H](C)OC(=O)[C@H](C)NC(=O)[C@@H](Cc2ccc(O)c(Br)c2)N(C)C(=O)[C@H](C)NC(=O)[C@@H](C)C1 | > 25 µM |
| COC1OC2COC(c3ccccc3)OC2C(O)C1OC(=S)c1ccccc1 (stereo not given) | 80.9 µM |

These compounds were tested on NCI-H226 lung (assay: NCI-60 cell line screen, 48 h).

| SMILES | TGI |
| --- | --- |
| CO/N=C(/C(=O)OC)c1ccccc1COc1ccccc1C(F)(F)F | > 100 µM |
| COc1cc(Nc2ccc3c(c2)CCC3)nc(OC)n1 | > 100 µM |
| CCOC(=O)c1c2cccccc-2nc1Nc1cccc2c(C)ccnc12 | > 10 µM |
| Cc1c2c(c(C)n1-c1ccccc1)C(=O)N(CCN1CCN(c3cccc(C(F)(F)F)c3)CC1)C2=O | > 100 µM |
| CCOC(=O)CC/C(=N/Nc1ccc(Cl)cc1[N+](=O)[O-])C(=O)OCC | > 100 µM |
| COc1cc(O)c2c(=O)c(OC)c(-c3ccc(OC)c(O)c3)oc2c1 | > 100 µM |
| O=c1c2c(no[n+]2[O-])c2ccccc2n1-c1ccccc1 | 30.7 µM |
| Clc1ccc(C=NC23CC4CC(CC(C4)C2)C3)c(Cl)c1 | > 10 µM |
| OCCCc1ccc2c(c1)[C@H](CO)[C@@H](c1ccc(O)cc1)O2 | > 100 µM |
| c1ccc(C2=NOC(c3ccccc3)N2C23CC4CC(CC(C4)C2)C3)cc1 (stereo not given) | > 10 µM |
| CCOC(=O)C(NC(=O)CC)(N1CCN(c2cc3c(cc2F)c(=O)c(C(=O)O)cn3C2CC2)CC1)C(F)(F)F (stereo not given) | > 100 µM |
| O=[N+]([O-])c1cc2oc(CSc3ccccc3)nc2cc1Cl | 91.1 µM |
| CC(C)(CO)CNc1nc(N)nc(Cl)c1/C=N/O | > 100 µM |
| COc1ccc2oc(=N)c(C(=O)Nc3ccccc3)cc2c1 | > 100 µM |
| C=C(C)[C@H]1C2=CC(C(=O)OC)=C(C[C@H](C(=C)C)[C@@H](O)[C@@H](O)C3=C[C@H]1OC3=O)O2 | > 100 µM |
| O=c1onc2n1-c1cc(Cl)ccc1C(=S)N1CSCC21 (stereo not given) | > 100 µM |
| CN1CC[C@]2(c3cccc(O)c3)CC(=O)/C(=C/c3ccccc3)[C@@H]1C2 | 31.9 µM |

| SMILES | TGI |
| --- | --- |
| O=C(O)C(O)C(O)C(O)C(O)CO (stereo not given) | > 100 µM |
| OC(C#CCN1CCCC1)(c1ccccc1)c1ccccc1Cl (stereo not given) | > 100 µM |
| CSc1nc2c(c(N(C)C)n1)C(O)n1c(nc3ccccc31)S2 (stereo not given) | > 100 µM |
| O=C1CSC2(CC(/C=C/c3cccs3)=NN2c2cccc(S(=O)(=O)O)c2)N1c1nc2ccccc2s1 (stereo not given) | > 100 µM |
| COc1ccc(-c2nc3ccccc3c(=S)n2OC(C)=O)cc1 | > 25 µM |
| C[C@@H]1CCC2[C@@H](C)[C@@H](O[C@H]3O[C@@H]4O[C@@]5(C)CCC6[C@H](C)CCC([C@H]3C)[C@]64OO5)O[C@@H]3O[C@@]4(C)CCC1[C@@]23OO4 (stereo not given in full) | > 25 µM |
| O=C(c1ccccc1)c1ccc2c(c1)NC(=O)c1ccccc1SSc1ccccc1C(=O)N2 | > 100 µM |
| CCCCOCCOC1=C(Cl)C(=O)c2c(O)ccc(O)c2C1=O | 4.63 µM |
| COc1ccc(C(=O)NCCN(C)C)c2nc3ccccc3cc12 | 3.26 µM |
| Cc1ccc(/C=C2/N=C(N/N=C\C(O)C(O)C(O)C(O)CO)NC2=O)cc1 (stereo not given) | > 100 µM |
| CCN(C(=O)N[C@@H](C)C(=O)N[C@@H](Cc1ccccc1)C(=O)OC)c1ccccc1 | > 100 µM |
| CN(C)Cc1cc(C(=O)/C=C/c2ccc([N+](=O)[O-])cc2)cc(CN(C)C)c1O | 19.2 µM |
| O=C(CCSC1=NCCCN1)c1ccc(F)cc1 | 41.9 µM |
| CCOc1c(OC)cc(-c2nc3n(n2)C(=O)C(CC)S3)cc1OC (stereo not given) | > 10 µM |
| CC1OC(O[C@H]2C3C=CO[C@@H](OC4OC(CO)C(O)C(O)C4O)C3[C@@]3(COC(=O)/C=C/c4ccccc4)O[C@@H]23)C(O)C(O)C1O (stereo not given in full) | > 100 µM |
| C/C1=C\[C@H](C)C[C@H](C)OC(=O)[C@H](C)NC(=O)[C@@H](Cc2ccc(O)c(Br)c2)N(C)C(=O)[C@H](C)NC(=O)[C@@H](C)C1 | 0.787 µM |
| COC1OC2COC(c3ccccc3)OC2C(O)C1OC(=S)c1ccccc1 (stereo not given) | > 100 µM |
